# PMC4222501, “Synthetic organotelluride compounds induce the reversal of Pdr5p mediated fluconazole resistance in Saccharomyces cerevisiae” (BMC Microbiology, 2014)
# Target: T1, Pdr5p (Saccharomyces cerevisiae, UniProt P33302)
# T1 construct: gene PDR5; Pdr5p-enriched plasma membranes from strain AD124567
# Assay: ATPase activity (Pi release) in Pdr5p-enriched plasma membranes, Pdr5p-null membranes subtracted
# Format: biochemical
# T1 sequence (P33302 whole entry): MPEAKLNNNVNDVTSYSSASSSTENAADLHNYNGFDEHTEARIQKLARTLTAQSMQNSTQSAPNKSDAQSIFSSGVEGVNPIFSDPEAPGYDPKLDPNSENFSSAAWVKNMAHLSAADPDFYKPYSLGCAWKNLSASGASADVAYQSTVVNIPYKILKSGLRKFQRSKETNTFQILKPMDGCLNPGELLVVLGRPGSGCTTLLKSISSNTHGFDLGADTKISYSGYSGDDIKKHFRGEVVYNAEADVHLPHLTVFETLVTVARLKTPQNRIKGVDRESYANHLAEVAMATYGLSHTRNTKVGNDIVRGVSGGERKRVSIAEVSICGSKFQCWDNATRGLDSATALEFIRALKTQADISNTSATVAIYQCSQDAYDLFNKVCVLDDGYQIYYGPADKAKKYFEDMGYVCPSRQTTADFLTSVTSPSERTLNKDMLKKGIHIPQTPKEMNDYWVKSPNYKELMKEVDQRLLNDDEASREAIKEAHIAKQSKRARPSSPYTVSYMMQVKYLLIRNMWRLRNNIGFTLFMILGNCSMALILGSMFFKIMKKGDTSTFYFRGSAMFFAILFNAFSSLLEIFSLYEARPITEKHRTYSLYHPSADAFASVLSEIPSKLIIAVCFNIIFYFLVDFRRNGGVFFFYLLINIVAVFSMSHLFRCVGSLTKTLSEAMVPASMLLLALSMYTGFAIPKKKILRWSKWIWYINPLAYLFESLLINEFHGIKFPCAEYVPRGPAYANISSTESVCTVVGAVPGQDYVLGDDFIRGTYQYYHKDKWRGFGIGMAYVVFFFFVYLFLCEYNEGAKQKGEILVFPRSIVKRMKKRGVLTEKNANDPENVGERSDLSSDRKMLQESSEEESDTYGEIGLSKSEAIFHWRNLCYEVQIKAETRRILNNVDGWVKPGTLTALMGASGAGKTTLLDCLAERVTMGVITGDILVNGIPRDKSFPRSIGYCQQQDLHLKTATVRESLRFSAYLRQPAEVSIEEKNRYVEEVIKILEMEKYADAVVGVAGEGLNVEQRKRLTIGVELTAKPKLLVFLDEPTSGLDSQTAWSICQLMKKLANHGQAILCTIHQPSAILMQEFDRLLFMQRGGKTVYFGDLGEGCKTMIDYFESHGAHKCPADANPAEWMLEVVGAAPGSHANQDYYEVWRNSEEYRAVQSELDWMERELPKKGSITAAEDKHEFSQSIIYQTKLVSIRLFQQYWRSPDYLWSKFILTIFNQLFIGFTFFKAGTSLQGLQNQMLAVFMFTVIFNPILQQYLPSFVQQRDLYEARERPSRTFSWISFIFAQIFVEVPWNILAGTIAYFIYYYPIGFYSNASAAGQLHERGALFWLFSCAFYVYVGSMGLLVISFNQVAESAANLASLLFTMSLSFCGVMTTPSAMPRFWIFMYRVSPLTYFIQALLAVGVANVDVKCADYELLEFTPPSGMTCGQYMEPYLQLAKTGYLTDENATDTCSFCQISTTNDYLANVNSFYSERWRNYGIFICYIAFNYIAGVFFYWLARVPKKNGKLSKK
row,SMILES,IC50 [µM]
1,CCCC[Te]CCCNC(=O)OC(C)(C)C [compound 1],1.14 ± 0.21
2,CCCC[Te]CCCNC(=O)c1ccccc1 [compound 2],1.45 ± 0.49
3,CCCC[Te]CCCCNC(=O)c1ccccc1 [compound 3],1.74 ± 0.91
4,CCCC[Te]CCCCCNC(=O)c1ccccc1 [compound 5],1.48 ± 0.32
